Test results taken from article PMC10866962, “Molecular docking of bioactive compounds extracted and purified from selected medicinal plant species against covid-19 proteins and in vitro evaluation” (Scientific Reports, 2024).
Converted amounts (≈) assume the structure as drawn.

Assays:
[1] = DPPH free radical scavenging assay; settings: for IC50 in DPPH assay: calculated by linear regression equation; for antioxidant potential (free radical scavenging) in DPPH assay: at 200 µg/mL
Experimental: The DPPH assay was performed according to the protocol of Ghasemi et al.[40] with little modifications. For DPPH solution, 3 mg of DPPH powder was dissolved in 100 mL methanol. […] Different serial dilutions (25, 50, 100, and 200 μg/mL) were prepared. The 3 mL DPPH methanolic solution was added to 400 μL compounds methanolic solution. The mixture was continuously shaken and stored at room temperature under shade for exactly 30 min. The absorbance of reaction mixture was measured at 515 nm spectrophotometrically. […] The experiment was repeated three times and percentage inhibition was calculated as follows.

[2] = ABTS free radical scavenging assay; design: IC50 values in ABTS assay (Table 2): unit not given beside the values; settings: for free radical scavenging potential in ABTS assay: at 200 µg/mL; for IC50 value in ABTS assay / IC50 values in ABTS assay (Table 2): calculated by linear regression equation; for IC50 values in ABTS assay (Table 2): unit not given
[3] = tested on: Klebsiella pneumoniae; test: Agar well diffusion method; settings: for zone of inhibition at 600 µg/mL: 24 h; for zone of inhibition: compound solution 0.6 mg/mL, 40 μL per well, 24 h at 37 °C
Experimental: (§2) Antibacterial activity of compounds was determined by agar well diffusion method[42]. Antibacterial activity of different compounds was tested against seven clinical pathogens (Klebsiella pneumonia, Escherichia coli, Xanthomonas, S. aureus, Salmonella, P. aeruginosa and S. epidermitis). The nutrient agar medium was prepared by dissolving 6 g agar nutrient powder in 250 mL distilled water. The media was autoclaved and poured into pre-labeled petri plates under sterile condition. Then rinsed these plates with bacterial suspension before solidification. Allowed it to solidify for 15 min. Compound solution of 0.6 mg/mL was used. Cefixime with 1 mg/1 mL was used as positive control whereas DMSO was used as negative control. After solidification made wells of 6 mm using sterile cork borer. Each well was sealed with 20 μL of agar. After sealing 40 μL of each compound solution was added in well. The petri plates were sealed by para-film and kept in incubator for 24 h at 37 °C. The experiment was run in triplicates. The zone of inhibition of bacterial growth was measured with scale in mm.

[4] = tested on: brine shrimp nauplii; test: Brine shrimp lethality assay (BSLA); settings: 24 h; for mortality at 200 µg/mL: read-out: mortality rate / cytotoxic effect in brine shrimp lethality assay; for mortality rate / cytotoxic effect in brine shrimp lethality assay: at highest 200 µg/mL concentration
[5] = tested on: Xanthomonas; test: Agar well diffusion method; assay type: cell-based; settings: for zone of inhibition: compound solution 0.6 mg/mL, 40 μL per well, 24 h at 37 °C
Experimental: as §2

[6] = tested on: E. coli; test: Agar well diffusion method; assay type: cell-based, Escherichia coli; settings: compound solution 0.6 mg/mL, 40 μL per well, 24 h at 37 °C
Experimental: (§1) Allowed it to solidify for 15 min. […] The experiment was run in triplicates.

[7] = tested on: P. aeruginosa; test: Agar well diffusion method; assay type: cell-based; settings: compound solution 0.6 mg/mL, 40 μL per well, 24 h at 37 °C
Experimental: as §1

[8] = tested on: S. aureus; test: Agar well diffusion method; assay type: cell-based; settings: for zone of inhibition: S. aureus, compound solution 0.6 mg/mL, 40 μL per well, 24 h at 37 °C
Experimental: as §1

[9] = tested on: Salmonella; test: Agar well diffusion method; assay type: cell-based; settings: compound solution 0.6 mg/mL, 40 μL per well, 24 h at 37 °C
Experimental: as §1

Compound	IC50 in DPPH assay [1] [µg/mL]	free radical scavenging potential in ABTS assay [2] [%]	IC50 value in ABTS assay [2] [µg/mL]	IC50 values in ABTS assay (Table 2) [2]	mortality at 200 µg/mL [4] [%]	further results
O=C1O[C@H]([C@@H](O)CO)C(O)=C1O [Ascorbic acid, reference compound]	97.065 (≈ 551 µM)	90	14.77 (≈ 83.9 µM)	14.77		
O=c1c(O[C@@H]2O[C@H](CO)[C@@H](O)[C@H](O)[C@H]2O)c(-c2ccc(O)cc2)oc2cc(O)cc(O)c12 [Astragalin]	100.9 (≈ 225 µM)	78		49.41	55	zone of inhibition at 600 µg/mL [3]: 26 mm
COc1ccc2c3c([nH]c2c1)C(C)=NCC3 [Harmaline]	94.84 (≈ 443 µM)	80.71	15.79 (≈ 73.7 µM)	15.79	80	zone of inhibition at 600 µg/mL ([5]; 24 h): 23 mm
COc1ccc2c(c1)[nH]c1c(C)nccc12 [Harmine]					65	
O=C(c1ccc(O)cc1)c1c(O)cc(O)c([C@@H]2O[C@H](CO)[C@@H](O)[C@H](O)[C@H]2O)c1O [Irriflophenone-3-C-β-D-glucopyranoside]	125 (≈ 306 µM)	71	112.63 (≈ 276 µM)	112.6		zone of inhibition [5]: 19 mm; zone of inhibition [6]: 34 mm; zone of inhibition [7]: 8 mm; zone of inhibition [8]: 28 mm; zone of inhibition [9]: 31 mm; zone of inhibition [3]: 30 mm; mortality rate / cytotoxic effect in brine shrimp lethality assay [4]: 65%
O=c1c2cc(O)c(O)cc2oc2c([C@@H]3O[C@H](CO)[C@@H](O)[C@H](O)[C@H]3O)c(O)cc(O)c12 [Isomangiferrin]	93.86 (≈ 222 µM)	62	124.19 (≈ 294 µM)	124.2		zone of inhibition [7]: 5 mm; zone of inhibition [8]: 32 mm; zone of inhibition [3]: 28 mm; antioxidant potential (free radical scavenging) in DPPH assay [1]: 78.32%; IC50 in DPPH assay ([1]; listed as isomangiferrin): 93.85 µg/mL (≈ 222 µM); mortality rate / cytotoxic effect in brine shrimp lethality assay [4]: 55%
O=c1c2cc(O)c(O)cc2oc2cc(O)c([C@@H]3O[C@H](CO)[C@@H](O)[C@H](O)[C@H]3O)c(O)c12 [Mangiferrin]	110.4 (≈ 261 µM)	73	110.33 (≈ 261 µM)	110.3	50	zone of inhibition at 600 µg/mL ([6]; Escherichia coli): 15 mm; zone of inhibition at 600 µg/mL ([7]; Pseudomonas aeruginosa): 10 mm; zone of inhibition at 600 µg/mL [9]: 28 mm; zone of inhibition at 600 µg/mL [3]: 32 mm
CN1CCC[C@H]1c1cccnc1 [Nicotine, reference compound]					100	LD50 value in brine shrimp lethality assay [4]: 30.69 µg/mL
O=c1c2ccccc2nc2n1CC[C@@H]2O [PH-HM 17, vasicinone]	124.9 (≈ 618 µM)			101.6		zone of inhibition [5]: 22 mm
O=C(/C=C/c1ccc(O)cc1)OC[C@H]1O[C@@H](Oc2c(-c3ccc(O)cc3)oc3cc(O)cc(O)c3c2=O)[C@H](O)[C@@H](O)[C@@H]1O [Tiliroside]	78.77 (≈ 132 µM)	70	101.64 (≈ 171 µM)	67.53	95	zone of inhibition at 600 µg/mL [3]: 24 mm; antioxidant potential (free radical scavenging) in DPPH assay [1]: 77.77%; IC50 in DPPH assay ([1]; listed as tiliroside): 78.77 µg/mL (≈ 132 µM); LD50 value in brine shrimp lethality assay [4]: 73.59 µg/mL
O[C@H]1CCN2Cc3ccccc3N=C12 [Vasicine]	137.7 (≈ 732 µM)	69	114.82 (≈ 610 µM)	114.8	55	zone of inhibition at 600 µg/mL ([8]; Staphylococcus aureus, 24 h): 22 mm
Quercitin-3-O rhamnoside [Quercitin-3-O-rhamnoside]	185.27					zone of inhibition [3]: 22 mm; IC50 in DPPH assay ([1]; listed as Quercetin-3-O- rahmnoside): 185.3 µg/mL
